System: MCF7 human breast cancer cells
Assay: BrdU pulse-chase S phase progression
Type: cell-based
Protocol: Effect of 10 μM dysidiolide on cell cycle progression of S-phase MCF7 cells (BrdU-positive). MCF7 cultures were pulse-labeled with 10 μM BrdU for 30 min. Cultures were washed extensively with phosphate-buffered saline (PBS) solution and fresh media was added, supplemented or not with 10 μM dysidiolide. The final DMSO concentration of control and drug cultures was 0.05%. Cells were harvested at different times after the BrdU pulse and cells were stained for DNA content with propidium iodide, and for BrdU, with a monoclonal anti-BrdU antibody coupled to fluorescein. The progression of this group of cells through the cell cycle was followed by dual wavelength flow cytometry.
Effect of 50 μM dysidiolide on cell cycle progression of S-phase MCF7 cells. MCF7 cells were pulse-labeled for 30 min with BrdU, and chased for 24 hr in the presence or absence of 50 μM dysidiolide. BrdU versus DNA content plots are shown for cell cultures harvested just after the pulse (time 0, “0”), and after the chase with (“24+”) or without drug (“24−”)
To further analyze the cell cycle effects induced by dysidiolide, the effects of the drug on S phase progression were tested. For this purpose, a subset of cells was pulse-labeled with the thymidine analog, 5-bromodeoxyuridine (BrdU) for 30 min, and chased in the presence or absence of dysidiolide. The progression of this group of cells through the cell cycle was followed by flow cytometry, by analyzing the intensity of BrdU labeling and DNA content at two different wavelengths: red for propidium iodide stain (DNA content) and green for the detection of anti-BrdU antibodies coupled to fluorescein (Becton-Dickinson Immunocytometric Systems, San Jose, Calif.). The first experiment was conducted on MCF7 human breast cancer cells chased for varying time periods after a 30 min BrdU pulse, with or without 10 μM dysidiolide. After a 24 hr chase in the presence of the drug, fewer cells had reached G1 (FIG. 6). However, the effect was modest in intensity (approximately 45% less cells reached G1 in treated samples, compared with untreated controls) […]

`C=C(C)CCC[C@@]1(C)CCC[C@H]2C1=CC[C@H](C)[C@]2(C)C[C@H](O)C1=CC(=O)O[C@@H]1O` (racemic) [dysidiolide] was tested, and the “less cells reached G1 compared with untreated controls” value (10 μM, 24 hr chase after 30 min BrdU pulse) was “approximately 45%”, the “cell cycle progression of BrdU-positive cells onto the next G1 phase” value (50 μM, 24 hr chase) was “prevented cell cycle progression” and the “cells with intermediate DNA content (S phase), forced fit” value (50 μM, 24 hr chase, BrdU-positive cells) was “approximately 90%”.
